Values quoted from earlier work, collected in patent US20070149443A1, “Methods of treating obesity using enterostatin” (priority 2005, published 2007).

Conditions: administered orally to humans; literature report

enterostatin
did not affect: body weight | energy expenditure | food intake
